From publication PMC9228535, “Antistaphylococcal Activities and ADME-Related Properties of Chlorinated Arylcarbamoylnaphthalenylcarbamates” (Pharmaceuticals, 2022)
In brackets after ≈: the same amount, converted by molar mass. Where two headings read alike, the source gives them in different places.

What was measured:
MRSA 63718 [1] = test: MBC, agar aliquot subculture method; type: cell-based; details: Staphylococcus aureus, MRSA
Protocol: (§1) All the investigated compounds were screened for in vitro antibacterial activity against the reference and quality control strain Staphylococcus aureus ATCC 29213 and clinical isolates of methicillin-resistant S. aureus (MRSA) 63718, SA 630, and SA 3202 [14]. Activities are expressed as the minimum inhibitory concentrations (MICs), see Table 2. In addition to the MICs, the minimum bactericidal concentrations (MBCs) were also determined.
(§2) For the S. aureus and MRSA isolates, the agar aliquot subculture method was used as a test for bactericidal agents. After the MIC value determination, the inoculum was transferred to Mueller–Hinton (Oxoid) agar using a multipoint inoculator. The plates were incubated in a thermostat at 37 °C for 24 h. The lowest concentration of test compound at which ≤5 colonies were obtained was then evaluated as MBC, corresponding to a 99.9% decrease in CFU relative to the original inoculum.

MRSA SA 630 [2] = test: MBC, agar aliquot subculture method; type: cell-based; details: Staphylococcus aureus
Protocol: as §1, §2

MRSA SA 3202 [3] = test: MBC, agar aliquot subculture method; type: cell-based; details: Staphylococcus aureus
Protocol: as §1, §2

[4] = tested on: Staphylococcus aureus ATCC 29213; test: MBC, agar aliquot subculture method; type: cell-based; details: ATCC29213, SA = S. aureus ATCC 29213, read-out: MBC
Protocol: as §1, §2

MRSA 63718 [5] = test: MIC, microtitration broth method; type: cell-based; details: Staphylococcus aureus, MRSA, 24 h
Protocol: as §1
(§3) In vitro antibacterial activity of the synthesized compounds was evaluated against representatives of multidrug-resistant bacteria, three clinical isolates of methicillin-resistant S. aureus: clinical isolate of animal origin, MRSA 63718 (Department of Infectious Diseases and Microbiology, Faculty of Veterinary Medicine, University of Veterinary Sciences Brno, Czech Republic), carrying the mecA gene; and MRSA SA 630 [46] and MRSA SA 3202 [46] (National Institute of Public Health, Prague, Czech Republic), both of human origin. Suspected colonies were confirmed by PCR; a 108bp fragment specific for S. aureus was detected. All isolates were tested for the presence of the mecA gene encoding methicillin resistance. […] Vancomycin-susceptible methicillin-susceptible S. aureus (VS-MSSA) ATCC 29213, obtained from the American Type Culture Collection, was used as the reference and quality control strain. Enterococcus faecalis ATCC 29212 was obtained from the American Type Culture Collection and used as the reference and quality control strain.
(§4) The minimum inhibitory concentrations (MICs) were evaluated by the microtitration broth method according to the CLSI [64, 65] with some modifications. The compounds were dissolved in DMSO (Sigma, St. Louis, MO, USA) to get a concentration […] and diluted in a microtitration plate in an appropriate medium, namely, Cation Adjusted Mueller–Hinton (CaMH, Oxoid, Basingstoke, UK) for staphylococci (S. aureus ATCC 29213, clinical isolates of MRSA 63718, SA 630, and SA 3202) and brain heart infusion (BHI, Oxoid) for E. faecalis ATCC 29212, to reach the final concentration of 256-0.125 µg/mL. The plate was inoculated by the tested microorganisms. The final concentration of bacterial cells was 10^5 for bacteria. Ampicillin (Sigma) was used as reference drugs. A drug-free control and a sterility control were included. The plates were incubated for 24 h at 37 °C for staphylococci and E. faecalis ATCC 29212 (stability evaluation of the carbamates, see Supplementary materials, Table S1). […] The experiments were repeated three times.

MRSA SA 630 [6] = test: MIC, microtitration broth method; type: cell-based; details: Staphylococcus aureus, 24 h
Protocol: as §1, §3, §4

MRSA SA 3202 [7] = test: MIC, microtitration broth method; type: cell-based; details: Staphylococcus aureus, 24 h
Protocol: as §1, §3, §4

[8] = tested on: Staphylococcus aureus ATCC 29213; test: MIC, microtitration broth method; type: cell-based; details: ATCC29213, SA = S. aureus ATCC 29213, 24 h, read-out: MIC
Protocol: as §1, §3, §4

THP-1 cells = test: In vitro cytotoxicity assay (WST-1); type: cell-based; details: Homo sapiens; THP-1, 24 h, ± SD, n = 6; read-out: IC50
Protocol: Preliminary in vitro cytotoxicity screening of the investigated compounds was performed using human monocytic leukemia THP-1 cells, see Table 2. The ability to inhibit the human cancer cell viability (IC50) of the compounds was compared to camptothecin toxicity (0.16 ± 0.07 μM). […] However, these values are up to two orders of magnitude higher than their significant antistaphyloccocal concentrations. This fact is also taken into account in the calculated selectivity index (SI), Table 2, where for only three compounds the SI is <20, while for the rest of the agents SI is >20, and for some derivatives even 100 and more. Thus, based on all these observations, it can be concluded that all the tested derivatives can be considered as in vitro non-toxic compounds for the subsequent design of new therapeutic agents.
The human THP-1 cell line (European Collection of Cell Cultures, Salisbury, UK) was cultured in RPMI 1640 medium supplemented with 10% fetal bovine serum, 2% L-glutamine, 1% penicillin, and streptomycin at 37 °C with 5% CO2. Cells were passaged at approximately 1-week intervals. All the tested compounds were prepared and dissolved as mentioned in our previous work.

[9] = tested on: Enterococcus faecalis ATCC 29212; test: MIC, microtitration broth method; type: cell-based; details: for MIC: ATCC29212, EF = Enterococcus faecalis, 24 h, read-out: MIC
Protocol: as §3, §4

[10] = Lipophilicity determination by RP-HPLC (log k, log D); type: physicochemical; details: for log D6.5 / log D7.4 / log k: RP-HPLC; for log D6.5: MeOH 72%/acetate buffered saline pH 6.5; for log D7.4: MeOH 72%/acetate buffered saline pH 7.4; for log k: MeOH 72%/water 28%
Protocol: Lipophilicity was measured by reversed-phase high performance liquid chromatography (RP-HPLC) under isocratic conditions with methanol as the organic modifier in the aqueous mobile phase and the logarithm of the capacity factor k was calculated, which is used as the lipophilicity index converted to the log P scale. In addition to the log k values, the logarithm of the distribution coefficient DpH at pH 6.5 and 7.4 was determined to clarify the behavior of the compounds under physiological conditions and possible ionization. Instead of water, a buffer of suitable pH was used as part of the mobile phase. In addition to the above-mentioned experimental methods, commercially available ChemBioDraw Ultra 13.0 and ACD/Percepta ver. […] In addition to lipophilicity, other parameters discussed in Ro5, such as molecular weight, number of H-bond donors/acceptors, as well as parameters not reported in Ro5, but characterizing the physicochemical properties of the prepared molecules, such as number of rotatable bonds, were predicted using ACD/Percepta. Moreover, for each R substituent, bulkiness expressed as molar volume (MV [cm^3]), a parameter describing the tail length/branching of each carbamates, was calculated.
A HPLC separation module Agilent 1200 Series (Agilent Technologies, Santa Clara, CA, USA) equipped with a Dual Absorbance Detector (DAD SL G1315C, Agilent Technologies) was used. A chromatographic column Symmetry® C18 5 μm, 4.6 × 250 mm, Part No. W21751W016 (Waters Corp, Milford, MA, USA) was used. The HPLC separation process was monitored by ChemStation for LC 3D systems (Agilent Technologies). […] The total flow of the column was 1.0 mL/min, injection 20 μL, column temperature 40 °C, and sample temperature 10 °C. The detection wavelength of 210 nm was chosen. A KI methanolic solution was used for the determination of the dead times (tD). Retention times (tR) were measured in minutes. The capacity factors k were calculated according to the formula k = (tR − tD)/tD, where tR is the retention time of the solute, and tD is the dead time obtained using an unretained analyte. The distribution coefficients DpH were calculated according to the formula DpH = (tR − tD)/tD. Each experiment was repeated three times.

Row | Compound | MBC (MRSA 63718 [1]) [µM] | MBC (MRSA SA 630 [2]) [µM] | MBC (MRSA SA 3202 [3]) [µM] | MBC [4] [µM] | MIC (MRSA 63718 [5]) [µM] | MIC (MRSA SA 630 [6]) [µM] | MIC (MRSA SA 3202 [7]) [µM] | MIC [8] [µM] | IC50 (THP-1 cells) [µM] | MIC [9] [µM] | log D6.5 [10] | log D7.4 [10] | log k [10] | lipophilicity (experimental log k/log D, approximate) [10] | anti-enterococcal activity (in words) ([9]; E. faecalis ATCC 29212) | lipophilicity (experimental log k/log D, approximate) ([10]; listed as 15)
1 | CC(C)NC(=O)Oc1c(C(=O)Nc2cc(Cl)c(Cl)cc2Cl)ccc2ccccc12 [Compound 9, 2-[N-(2,4,5-Trichlorophenyl)carbamoyl]naphthalen-1-yl isopropyl carbamate] | 0.139 (≈ 0.0628 µg/mL) | 0.277 (≈ 0.125 µg/mL) | 0.277 (≈ 0.125 µg/mL) | 0.018 (≈ 0.00813 µg/mL) | 0.139 (≈ 0.0628 µg/mL) | 0.035 (≈ 0.0158 µg/mL) | 0.277 (≈ 0.125 µg/mL) | 0.018 (≈ 0.00813 µg/mL) | 3.26 ± 0.08 | 142 (≈ 64.1 µg/mL) | 0.9579 | 1.0468 | 0.9526 | – | – | –
2 | O=C(NC1CCCC1)Oc1c(C(=O)Nc2cc(Cl)c(Cl)cc2Cl)ccc2ccccc12 [Compound 10, 2-[N-(2,4,5-Trichlorophenyl)carbamoyl]naphthalen-1-yl cyclopentyl carbamate] | 0.262 (≈ 0.125 µg/mL) | 1.05 (≈ 0.5 µg/mL) | 2.09 (≈ 0.999 µg/mL) | 0.262 (≈ 0.125 µg/mL) | 0.262 (≈ 0.125 µg/mL) | 0.262 (≈ 0.125 µg/mL) | 2.09 (≈ 0.999 µg/mL) | 0.262 (≈ 0.125 µg/mL) | 3.23 ± 0.29 | 268 (≈ 128 µg/mL) | 1.1521 | 1.1515 | 1.1481 | ca. 1.15 | – | –
3 | O=C(NC1CCCCC1)Oc1c(C(=O)Nc2cc(Cl)c(Cl)cc2Cl)ccc2ccccc12 [Compound 11, 2-[N-(2,4,5-Trichlorophenyl)carbamoyl]naphthalen-1-yl cyclohexyl carbamate] | 0.508 (≈ 0.25 µg/mL) | 1.02 (≈ 0.5 µg/mL) | 0.508 (≈ 0.25 µg/mL) | 0.508 (≈ 0.25 µg/mL) | 0.254 (≈ 0.125 µg/mL) | 0.508 (≈ 0.25 µg/mL) | 0.508 (≈ 0.25 µg/mL) | 0.128 (≈ 0.063 µg/mL) | 2.76 ± 0.24 | 65.1 (≈ 32 µg/mL) | 1.2952 | 1.2955 | 1.2911 | – | moderate activity | –
4 | O=C(NC1CCCCCC1)Oc1c(C(=O)Nc2cc(Cl)c(Cl)cc2Cl)ccc2ccccc12 [Compound 12, 2-[N-(2,4,5-Trichlorophenyl)carbamoyl]naphthalen-1-yl cycloheptyl carbamate] | 0.247 (≈ 0.125 µg/mL) | 0.494 (≈ 0.25 µg/mL) | 0.494 (≈ 0.25 µg/mL) | 0.494 (≈ 0.25 µg/mL) | 0.247 (≈ 0.125 µg/mL) | 0.494 (≈ 0.25 µg/mL) | 0.494 (≈ 0.25 µg/mL) | 0.494 (≈ 0.25 µg/mL) | 3.24 ± 0.12 | 127 (≈ 64.2 µg/mL) | 1.4492 | 1.4527 | 1.4469 | ca. 1.45 | – | –
5 | O=C(NCCc1ccccc1)Oc1c(C(=O)Nc2cc(Cl)c(Cl)cc2Cl)ccc2ccccc12 [Compound 13, 2-[N-(2,4,5-Trichlorophenyl)carbamoyl]naphthalen-1-yl 2-phenylethyl carbamate] | 0.123 (≈ 0.0632 µg/mL) | 0.973 (≈ 0.5 µg/mL) | 0.243 (≈ 0.125 µg/mL) | 0.062 (≈ 0.0319 µg/mL) | 0.123 (≈ 0.0632 µg/mL) | 0.062 (≈ 0.0319 µg/mL) | 0.123 (≈ 0.0632 µg/mL) | 0.062 (≈ 0.0319 µg/mL) | 2.79 ± 0.28 | 125 (≈ 64.2 µg/mL) | 1.2473 | 1.2470 | 1.2450 | – | – | –
6 | O=C(NCCCCc1ccccc1)Oc1c(C(=O)Nc2cc(Cl)c(Cl)cc2Cl)ccc2ccccc12 [Compound 14, 2-[N-(2,4,5-Trichlorophenyl)carbamoyl]naphthalen-1-yl 4-phenylbutyl carbamate] | 0.231 (≈ 0.125 µg/mL) | 0.461 (≈ 0.25 µg/mL) | 0.461 (≈ 0.25 µg/mL) | 0.116 (≈ 0.0629 µg/mL) | 0.231 (≈ 0.125 µg/mL) | 0.116 (≈ 0.0629 µg/mL) | 0.231 (≈ 0.125 µg/mL) | 0.116 (≈ 0.0629 µg/mL) | 2.73 ± 0.37 | 118 (≈ 63.9 µg/mL) | 1.5193 | 1.5191 | 1.5167 | ca. 1.25 | – | ca. 1.52
